In PMC4213943 (ChemMedChem, 2014):

Molecular target: G-actin (Prodan-G-actin; actin) (Oryctolagus cuniculus, UniProt P68135)
Assay: X-ray crystal structure
Assay type: binding
Conditions: nucleotide site

**Q.** `Nc1ncnc2c1ncn2[C@@H]1O[C@H](COP(=O)(O)OP(=O)(O)O)[C@@H](O)[C@H]1O` [ADP] was tested. Which X-ray crystal structure (actin co-crystallised with SF-01 or GC-04, Ca2+) did it give?
**A.** complexes with GC-04 and SF-01 is occupied by ADP

**Q.** `Nc1ncnc2c1ncn2[C@@H]1O[C@H](COP(=O)(O)OP(=O)(O)OP(=O)(O)O)[C@@H](O)[C@H]1O` [ATP] was tested. Which X-ray crystal structure (actin co-crystallised with kabiramide C, Ca2+) did it give?
**A.** ATP is bound to the actin in the KabC complex
